Reference: PubChem BioAssay (NCI)
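48-hour exposure; five concentrations; linearly interpolated endpoints. TGI marks complete inhibition of growth.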

Key:
Test in all cases: DTP human tumour cell line panel, 48 h
[1] = tested on: HOP-92 NSCLC
[2] = tested on: HCT-15 colon
[3] = tested on: PC-3 prostate
[4] = tested on: U251 CNS
[5] = tested on: OVCAR-3 ovarian
[6] = tested on: MCF7 breast
[7] = tested on: HS 578T breast
[8] = tested on: MDA-MB-435
[9] = tested on: TK-10 renal
[10] = tested on: HCT-116 colon
[11] = tested on: NCI-H522 lung
[12] = tested on: SF-268 CNS
[13] = tested on: T-47D breast
[14] = tested on: SNB-19 CNS
[15] = tested on: COLO 205 colon
[16] = tested on: MALME-3M melanoma
[17] = tested on: UACC-257 melanoma
[18] = tested on: SK-MEL-28 melanoma
[19] = tested on: IGROV1 ovarian
[20] = tested on: M14 melanoma
[21] = tested on: SF-295 CNS
[22] = tested on: LOX IMVI melanoma
[23] = tested on: UACC-62 melanoma
[24] = tested on: CCRF-CEM leukemia
[25] = tested on: CAKI-1 renal
[26] = tested on: OVCAR-5 ovarian
[27] = tested on: MDA-N
[28] = tested on: DU-145 prostate
[29] = tested on: NCI/ADR-RES ovarian
[30] = tested on: SK-MEL-2 melanoma
[31] = tested on: OVCAR-4 ovarian
[32] = tested on: SK-OV-3 ovarian
[33] = tested on: HT29 colon
[34] = tested on: HCC-2998 colon
[35] = tested on: 786-0 renal
[36] = tested on: HOP-62 NSCLC
[37] = tested on: MOLT-4 leukemia
[38] = tested on: BT-549 breast
[39] = tested on: NCI-H23 lung
[40] = tested on: EKVX NSCLC
[41] = tested on: SN12C renal
[42] = tested on: SR leukemia
[43] = tested on: RXF 393 renal
[44] = tested on: SW-620 colon
[45] = tested on: SK-MEL-5 melanoma
[46] = tested on: OVCAR-8 ovarian
[47] = tested on: SNB-75 CNS
[48] = tested on: A549 NSCLC
[49] = tested on: K-562 leukemia
[50] = tested on: UO-31 renal
[51] = tested on: KM12 colon
[52] = tested on: SF-539 CNS
[53] = tested on: NCI-H460 lung
[54] = tested on: ACHN renal
[55] = tested on: MDA-MB-231 breast
[56] = tested on: HL-60(TB) leukemia
[57] = tested on: NCI-H226 lung
[58] = tested on: RPMI-8226 leukemia
[59] = tested on: A498 renal

COc1cc(/C=C2/C[C@H]3[C@@H]4CC=C5C[C@@H](OC(C)=O)CC[C@]5(C)[C@H]4CC[C@]3(C)NC2=O)cc(OC)c1OC
TGI [1]: 52.3 µM | TGI [2]: > 100 µM | TGI [3]: 44.3 µM | TGI [4]: 46.5 µM | TGI [5]: > 100 µM | TGI [6]: > 100 µM | TGI [7]: 74.2 µM | TGI [8]: > 100 µM | TGI [9]: 83.3 µM | TGI [10]: > 100 µM | TGI [11]: 59.4 µM | TGI [12]: 76 µM | TGI [13]: 72.8 µM | TGI [14]: 41.9 µM | TGI [15]: > 100 µM | TGI [16]: 60.3 µM | TGI [17]: 97.1 µM | TGI [18]: 70.9 µM | TGI [19]: 69.6 µM | TGI [20]: > 100 µM | TGI [21]: 65.9 µM | TGI [22]: > 100 µM | TGI [23]: 47 µM | TGI [24]: > 100 µM | TGI [25]: > 100 µM | TGI [26]: 92.2 µM | TGI [27]: > 100 µM | TGI [28]: 55.3 µM | TGI [29]: 54.4 µM | TGI [30]: 52.4 µM | TGI [31]: 62.3 µM | TGI [32]: 60.3 µM | TGI [33]: > 100 µM | TGI [34]: > 100 µM | TGI [35]: 36.7 µM | TGI [36]: 73.1 µM | TGI [37]: 91.4 µM | TGI [38]: 55 µM | TGI [39]: 67 µM | TGI [40]: 68.3 µM | TGI [41]: > 100 µM | TGI [42]: > 100 µM | TGI [43]: 39.4 µM | TGI [44]: > 100 µM | TGI [45]: > 100 µM | TGI [46]: > 100 µM | TGI [47]: 47.3 µM | TGI [48]: 59.3 µM | TGI [49]: > 100 µM | TGI [50]: 50.2 µM | TGI [51]: > 100 µM | TGI [52]: 37.5 µM | TGI [53]: > 100 µM | TGI [54]: 44.6 µM | TGI [55]: 62.5 µM

CC(=O)Oc1c2oc3ccc(Cl)cc3c(=O)c2c(O)c2ccsc12
TGI [1]: > 100 µM | TGI [2]: > 100 µM | TGI [3]: > 100 µM | TGI [56]: > 100 µM | TGI [4]: > 100 µM | TGI [5]: > 100 µM | TGI [57]: > 100 µM | TGI [6]: > 100 µM | TGI [7]: > 100 µM | TGI [8]: > 100 µM | TGI [9]: > 100 µM | TGI [10]: > 100 µM | TGI [12]: > 100 µM | TGI [13]: 86.7 µM | TGI [14]: > 100 µM | TGI [15]: > 100 µM | TGI [16]: > 100 µM | TGI [17]: > 100 µM | TGI [18]: > 100 µM | TGI [20]: > 100 µM | TGI [21]: > 100 µM | TGI [22]: > 100 µM | TGI [23]: > 100 µM | TGI [24]: > 100 µM | TGI [25]: > 100 µM | TGI [26]: > 100 µM | TGI [27]: > 100 µM | TGI [28]: > 100 µM | TGI [29]: > 100 µM | TGI [30]: > 100 µM | TGI [31]: > 100 µM | TGI [32]: > 100 µM | TGI [33]: > 100 µM | TGI [34]: > 100 µM | TGI [35]: > 100 µM | TGI [36]: > 100 µM | TGI [38]: > 100 µM | TGI [39]: > 100 µM | TGI [58]: > 100 µM | TGI [40]: > 100 µM | TGI [41]: > 100 µM | TGI [43]: > 100 µM | TGI [44]: > 100 µM | TGI [45]: > 100 µM | TGI [46]: > 100 µM | TGI [47]: > 100 µM | TGI [48]: > 100 µM | TGI [59]: > 100 µM | TGI [49]: > 100 µM | TGI [50]: > 100 µM | TGI [51]: > 100 µM | TGI [52]: > 100 µM | TGI [53]: > 100 µM | TGI [54]: > 100 µM | TGI [55]: > 100 µM
